# In patent US20260200943A1, “COMPOUNDS FOR TREATING CANCER” (Genesis Therapeutics, Inc., priority 2022, published 2026):
# Experiments:
# Format in all cases: biochemical
# CDK6/CyclinD3 [1] = molecular target: T1, CDK6/CyclinD3 (Homo sapiens, UniProt Q00534); test: CDK6/CyclinD3 ChEF Assay (AQT, Table C); conditions: read-out: CDK6/CCND3 AQT Ki: Average Ki
# T1 construct: Wild-type, full length CDK6 in complex with wildtype, full length CyclinD3: Carna Cat #04-107; purchased Carna 04-107
# Protocol: (§1) 16 nL of 1000× compound in 100% DMSO is added to a 384-well low volume, black assay plate. 12 μL of 1.3×CDK6/CyclinD3 (Wild-type, full length CDK6 in complex with wildtype, full length CyclinD3: Carna Cat #04-107) diluted in assay buffer (54 mM Hepes, 0.012% Brij-35, 10 mM MgCl2, 0.55 mM EGTA, 1% Glycerol, 0.02% BSA, and 1.2 mM DTT) is added to the plates on top of the compound and pre-incubated for 30 minutes at room temperature. Following the incubation, 4 uL of 4×Sox-chromophore (CSox) labeled peptide substrate (AQT0258, AssayQuant) & ATP diluted in assay buffer is added to the plate to initiate the reaction. The assay is incubated at room temperature for 300 min after initiation. The CSox peptide substrate is phosphorylated by CDK6/D3 upon ATP hydrolysis.
# (§2) The fluorescent intensity measurement of the assay plate is read on a microplate reader once the assay is initiated and again at the completion of the assay. Phosphorylation of the CSox-based peptide substrate sensor results in an immediate increase in fluorescence. These raw fluorescence intensity values are normalized to calculate percent inhibition, which are fit to a four-parameter logistic curve and IC50 values are calculated. IC50 values are converted to Ki using substrate, KM^app values, and the Cheng-Prusoff equation.
# CDK2/CyclinA2 = molecular target: T2, CDK2/CyclinA2 (Homo sapiens, UniProt P24941); test: CDK2/CyclinA2 ChEF Assay (AQT, Table C); conditions: 10xKm; for Ki: AQT ChEF, read-out: CDK2/CCNA2 AQT10xKm Ki: Average Ki; for CDK2/CCNA2 AQT10xKm Ki: CDK2/A2 Selectivity over CDK1/B1 / CDK2/CCNA2 AQT10xKm Ki: CDK2/A2 selectivity over CDK4/D1 / CDK2/CCNA2 AQT10xKm Ki: CDK2/A2 selectivity over CDK6/D3 / CDK2/CCNA2 AQT10xKm Ki: CDK2/A2 Selectivity over CDK9: AQT
# T2 construct: Wild-type, full length CDK2 in complex with wildtype, full length CyclinA2: Carna Cat #04-103; purchased Carna 04-103
# Protocol: 16 nL of 1000× compound in 100% DMSO is added to a 384-well low volume, black assay plate. 12 μL of 1.3×CDK2/CyclinA2 (Wild-type, full length CDK2 in complex with wildtype, full length CyclinA2: Carna Cat #04-103 diluted in assay buffer (54 mM Hepes, 0.012% Brij-35, 10 mM MgCl2, 0.55 mM EGTA, 1% Glycerol, 0.02% BSA, and 1.2 mM DTT) is added to the plates on top of the compound and pre-incubated for 30 minutes at room temperature. Following the incubation, 4 uL of 4×Sox-chromophore (CSox) labeled peptide substrate (AQT0297, AssayQuant) & ATP diluted in assay buffer is added to the plate to initiate the reaction. The assay is incubated at room temperature for 90 min after initiation. The CSox peptide substrate is phosphorylated by CDK2/A2 upon ATP hydrolysis.
# as §2
# CDK4/CyclinD1 = molecular target: T3, CDK4/CyclinD1 (Homo sapiens, UniProt P11802); test: CDK4/CyclinD1 ChEF Assay (AQT, Table C); conditions: read-out: CDK4/CCND1 AQT Ki: Average Ki
# T3 construct: Wild-type, full length CDK4 in complex with wildtype, CyclinD1: ThermoFisher Cat #PR8064A; purchased ThermoFisher PR8064A
# Protocol: as §1, with “1.3×CDK4/CyclinD1” for “1.3×CDK6/CyclinD3”, “CDK4” for “CDK6”, “CyclinD1: ThermoFisher” for “full length CyclinD3: Carna”, “#PR8064A)” for “#04-107)”, “150” for “300”, “CDK4/D1” for “CDK6/D3”
# as §2, with “KM^ap” for “KM^app”
# CDK6/CyclinD3 [2] = molecular target: T1, CDK6/CyclinD3; test: CDK6/Cyclin D3 Mobility Shift Assay (Caliper, Table B); conditions: read-out: CDK6/CCND3 Caliper Ki: Average Ki
# Protocol: 10 nL of 2000× compound in 100% DMSO is added to a 384-well polypropylene assay plate. 15 μL of 1.3×CDK6/D3 and 1.3× fluorescent substrate (Wild-type, full length CDK6 in complex with wildtype, full length CyclinD3: Carna Cat #04-107 and FL-Peptide 34: PerkinElmer Cat #760643) diluted in kinase buffer (50 mM Hepes, 0.01% Brij-35, 10 mM MgCl2, 1 mM EGTA, 0.05% BSA, and 2 mM DTT) is added to the plates on top of the compound, mixed, and pre-incubated for 30 minutes at room temperature. The fluorescently labeled peptide substrate is phosphorylated by CDK6/D3 upon ATP hydrolysis. Following the incubation, 5 μL of 4×ATP diluted in kinase buffer is added to the plate to initiate the reaction. Following the 30-minute incubation, the reaction is stopped by adding 75 μL of stopping buffer containing 0.5 M EDTA.
# The assay plate is then read on a Lab Chip EZ Reader which separates the fluorescently labeled substrate and product peptides through a mobility difference. The phosphorylation of the substrate imparts a negative charge, which allows differences in separation as both are pulled through the microfluidic chip. The ratio of substrate and product values are used to generate percent conversion. These raw percent conversion values are normalized to calculate percent inhibition, which are fit to a four-parameter logistic curve and IC50 values are calculated. IC50 values are converted to Ki through using substrate and Km^app values, and the Cheng-Prusoff equation.
# T1 sequence (Q00534 whole entry): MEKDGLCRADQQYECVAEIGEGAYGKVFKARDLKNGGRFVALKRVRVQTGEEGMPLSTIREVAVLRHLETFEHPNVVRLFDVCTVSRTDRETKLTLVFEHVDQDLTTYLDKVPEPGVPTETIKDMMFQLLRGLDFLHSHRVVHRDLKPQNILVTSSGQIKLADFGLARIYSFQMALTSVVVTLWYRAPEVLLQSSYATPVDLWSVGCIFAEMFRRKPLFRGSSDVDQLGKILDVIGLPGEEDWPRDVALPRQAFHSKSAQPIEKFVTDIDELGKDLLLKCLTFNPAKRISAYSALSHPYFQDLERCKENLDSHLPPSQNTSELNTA
# T1 sequence (P30281 whole entry partner): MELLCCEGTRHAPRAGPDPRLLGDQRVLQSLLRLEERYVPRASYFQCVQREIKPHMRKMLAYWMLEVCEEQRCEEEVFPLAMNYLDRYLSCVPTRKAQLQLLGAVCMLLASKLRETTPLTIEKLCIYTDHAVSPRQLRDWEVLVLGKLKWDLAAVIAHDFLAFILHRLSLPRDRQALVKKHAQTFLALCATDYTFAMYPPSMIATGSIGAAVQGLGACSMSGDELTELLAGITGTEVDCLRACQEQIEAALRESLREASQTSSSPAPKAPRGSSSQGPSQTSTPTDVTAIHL
# T3 sequence (P11802 whole entry): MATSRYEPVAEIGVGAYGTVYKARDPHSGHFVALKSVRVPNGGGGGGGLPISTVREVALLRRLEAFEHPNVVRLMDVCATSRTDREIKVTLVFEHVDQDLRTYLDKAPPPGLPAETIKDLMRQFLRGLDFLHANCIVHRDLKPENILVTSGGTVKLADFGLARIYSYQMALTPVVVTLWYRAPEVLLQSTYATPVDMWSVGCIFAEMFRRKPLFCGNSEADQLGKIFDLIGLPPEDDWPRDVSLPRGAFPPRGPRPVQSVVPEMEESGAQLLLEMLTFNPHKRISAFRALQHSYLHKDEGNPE
# T3 sequence (P24385 whole entry partner): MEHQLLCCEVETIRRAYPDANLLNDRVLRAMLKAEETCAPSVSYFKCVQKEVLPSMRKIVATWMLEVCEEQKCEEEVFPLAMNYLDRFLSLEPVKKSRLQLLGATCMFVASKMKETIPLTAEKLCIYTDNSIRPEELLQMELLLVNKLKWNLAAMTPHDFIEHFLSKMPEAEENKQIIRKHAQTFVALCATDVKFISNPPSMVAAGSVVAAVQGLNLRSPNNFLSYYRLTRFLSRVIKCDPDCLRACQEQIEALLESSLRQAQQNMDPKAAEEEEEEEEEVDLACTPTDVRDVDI
Ki (CDK6/CyclinD3 [1]),Ki (CDK2/CyclinA2),CDK2/CCNA2 AQT10xKm Ki: CDK2/A2 Selectivity over CDK1/B1 (CDK2/CyclinA2),CDK2/CCNA2 AQT10xKm Ki: CDK2/A2 selectivity over CDK4/D1 (CDK2/CyclinA2),CDK2/CCNA2 AQT10xKm Ki: CDK2/A2 selectivity over CDK6/D3 (CDK2/CyclinA2),CDK2/CCNA2 AQT10xKm Ki: CDK2/A2 Selectivity over CDK9 (CDK2/CyclinA2),Ki (CDK4/CyclinD1),Ki (CDK6/CyclinD3 [2]),SMILES
≥ 100 nM,< 1 nM,A (A>10),A (A>10),A (A>10),A (A>10),≥ 100 nM,,"NS(=O)(=O)c1ccc2cc1OCCCCCNC(=O)O[C@@H]1CC[C@@H](C1)c1cnc(nc1)N2 (stereo in doubt) [Compound 105, rel-(2S,5R)-7-oxo-6,14-dioxa-8,20,22,25-tetraazatetracyclo[19.2.2.1^{2,5}.1^{15,19}]heptacosa-1(23),15,17,19(26),21,24-hexaene-16-sulfonamide]"
≥ 100 nM,< 1 nM,A (A>10),A (A>10),A (A>10),A (A>10),≥ 100 nM,≥ 100 nM,"O=C1NCCCCCCNS(=O)(=O)c2ccc(c(F)c2)Nc2cc([nH]n2)[C@H]2CC[C@H](C2)O1 [Compound 91, (1^1S,1^3R,Z)-4^2-fluoro-2^1H-15-oxa-5-thia-3,6,13-triaza-2(5,3)-pyrazola-4(1,4)-benzena-1(1,3)-cyclopentanacyclopentadecaphan-14-one 5,5-dioxide]"
,,,,,,,25 to 100 nM,O=C1NCCCCCCCNS(=O)(=O)c2ccc(c(F)c2)Nc2cc([nH]n2)[C@H]2CC[C@H](C2)O1 [Compound 92]
,< 1 nM,A (A>10),,,A (A>10),,,"O=C1NCCCCCCn2cc(cn2)S(=O)(=O)N2CCC(CC2)Nc2cc([nH]n2)[C@H]2CC[C@H](C2)O1 [Compound 97, (1^1S,1^3R,2^4Z,6^4E)-2^1H,6^1H-15-oxa-5-thia-3,13-diaza-4(4,1)-piperidina-2(5,3),6(4,1)-dipyrazola-1(1,3)-cyclopentanacyclopentadecaphan-14-one 5,5-dioxide]"
,,,,,,,25 to 100 nM,"O=C1NCCCCNS(=O)(=O)c2ccc(c(F)c2)Nc2cc([nH]n2)[C@H]2CC[C@H](C2)O1 [Compound 99, (1^1S, 1^3R,Z)-4^2-fluoro-2^1H-13-oxa-5-thia-3,6,11-triaza-2(5,3)-pyrazola-4(1,4)-benzena-1(1,3)-cyclopentanacyclotridecaphan-12-one 5,5-dioxide]"
,,,,,,,≥ 100 nM,"O=C1NCC=CCNS(=O)(=O)c2ccc(c(F)c2)Nc2cc([nH]n2)[C@H]2CC[C@H](C2)O1 [Compound 102, (1^1S,1^3R,2^4Z)-4^2-fluoro-2^1H-13-oxa-5-thia-3,6,11-triaza-2(5,3)-pyrazola-4(1,4)-benzena-1(1,3)-cyclopentanacyclotridecaphan-8-en-12-one 5,5-dioxide]"
